Source: PubChem BioAssay AID228 (DTP/NCI, 2004)
“And” between values parts separate entries of the source, which are not always exact repeats. Identical values can stand only once. Inconclusive results are not listed.

System: BDF1 mice, Friend leukemia sc, tumor weight T/C
Experiment: NCI In Vivo Anticancer Drug Screen. Data for tumor model Friend Virus Leukemia (Solid) (subcutaneous) in B6D2F1 (BDF1) mice
Settings: endpoint: mean tumor weight, higher = larger tumour
Method: The antitumor activity of compounds was measured in mice bearing transplantable tumors. Survival or tumor size were measured and the results are expressed as the measurement made in the treated group (T) divided by the measurement made in the vehicle treated control group (C). The tumor model used in this assay is Friend Virus Leukemia (Solid) (subcutaneous) in B6D2F1 (BDF1) mice

[1] = dose: 75.0 mg/kg/injection, schedule: Q01DX011 (ip), vehicle: carboxymethylcellulose (CMC)
[2] = dose: 25.0 mg/kg/injection, schedule: Q01DX011 (sc), vehicle: steriod suspending solution
[3] = dose: 5.0 mg/kg/injection, schedule: Q01DX011 (ip), vehicle: carboxymethylcellulose (CMC)
[4] = dose: 3.0 mg/kg/injection, schedule: Q01DX011 (ip), vehicle: carboxymethylcellulose (CMC)
[5] = dose: 6.0 mg/kg/injection, schedule: Q01DX011 (ip), vehicle: carboxymethylcellulose (CMC)

For Nc1nc2ncc(CNc3ccc(C(=O)NC(CCC(=O)O)C(=O)O)cc3)nc2c(=O)[nH]1 (stereo unspecified), the T/C (dose: 7.0 mg/kg/injection, schedule: Q01DX011 (ip), vehicle: carboxymethylcellulose (CMC)) was 56 % of control, the T/C (dose: 14.0 mg/kg/injection, schedule: Q01DX011 (ip), vehicle: carboxymethylcellulose (CMC)) was 105 % of control and the T/C (dose: 28.0 mg/kg/injection, schedule: Q01DX011 (ip), vehicle: carboxymethylcellulose (CMC)) was 79 % of control. The T/C (dose: 56.0 mg/kg/injection, schedule: Q01DX011 (ip), vehicle: carboxymethylcellulose (CMC)) was 70 % of control.

In the case of CC(=O)OCC(=O)[C@@]1(O)CC[C@H]2[C@@H]3CCC4=CC(=O)CC[C@]4(C)[C@H]3C(=O)C[C@@]21C, the T/C (dose: 5.62 mg/kg/injection, schedule: Q01DX011 (sc), vehicle: steriod suspending solution) is reported as 59 % of control, the T/C (dose: 8.0 mg/kg/injection, schedule: Q01DX011 (sc), vehicle: steriod suspending solution) is reported as 97 % of control and the T/C (dose: 11.25 mg/kg/injection, schedule: Q01DX011 (sc), vehicle: steriod suspending solution) is reported as 33 % of control. The T/C (dose: 16.0 mg/kg/injection, schedule: Q01DX011 (sc), vehicle: steriod suspending solution) was 69 % of control, the T/C (dose: 22.5 mg/kg/injection, schedule: Q01DX011 (sc), vehicle: steriod suspending solution) was 21 % of control and the T/C (dose: 31.0 mg/kg/injection, schedule: Q01DX011 (sc), vehicle: steriod suspending solution) was 15 % of control and 29 % of control (2×). The T/C (dose: 34.0 mg/kg/injection, schedule: Q01DX011 (sc), vehicle: steriod suspending solution) was 50 % of control, the T/C (dose: 45.0 mg/kg/injection, schedule: Q01DX011 (sc), vehicle: steriod suspending solution) was 13 % of control and the T/C (dose: 62.0 mg/kg/injection, schedule: Q01DX011 (sc), vehicle: steriod suspending solution) was 7 % of control and 9 % of control and 18 % of control. The T/C (dose: 68.0 mg/kg/injection, schedule: Q01DX011 (sc), vehicle: steriod suspending solution) was 28 % of control, the T/C (dose: 125.0 mg/kg/injection, schedule: Q01DX011 (sc), vehicle: steriod suspending solution) was 3 % of control and 15 % of control and 20 % of control and the T/C (dose: 250.0 mg/kg/injection, schedule: Q01DX011 (sc), vehicle: steriod suspending solution) was 3 % of control and 6 % of control and 20 % of control.

For CN(C)c1nc(N(C)C)nc(N(C)C)n1, the T/C (dose: 3.75 mg/kg/injection, schedule: Q01DX011 (ip), vehicle: other) was 104 % of control, the T/C (dose: 7.5 mg/kg/injection, schedule: Q01DX011 (ip), vehicle: other) was 83 % of control and the T/C (dose: 15.0 mg/kg/injection, schedule: Q01DX011 (ip), vehicle: other) was 112 % of control. For the same molecule, the T/C (dose: 30.0 mg/kg/injection, schedule: Q01DX011 (ip), vehicle: other) was 84 % of control.

In the case of O=c1[nH]cnc2n[nH]nc12, the T/C (dose: 62.5 mg/kg/injection, schedule: Q01DX011 (ip), vehicle: carboxymethylcellulose (CMC)) is reported as 71 % of control, the T/C (dose: 125.0 mg/kg/injection, schedule: Q01DX011 (ip), vehicle: carboxymethylcellulose (CMC)) is reported as 55 % of control and the T/C (dose: 250.0 mg/kg/injection, schedule: Q01DX011 (ip), vehicle: carboxymethylcellulose (CMC)) is reported as 31 % of control and 36 % of control. For the same molecule, the T/C (dose: 500.0 mg/kg/injection, schedule: Q01DX011 (ip), vehicle: carboxymethylcellulose (CMC)) was 11 % of control and 17 % of control.

S=P(N1CC1)(N1CC1)N1CC1 was tested, and the T/C (dose: 0.3 mg/kg/injection, schedule: Q01DX011 (ip), vehicle: carboxymethylcellulose (CMC)) was 79 % of control, the T/C (dose: 0.6 mg/kg/injection, schedule: Q01DX011 (ip), vehicle: carboxymethylcellulose (CMC)) was 73 % of control and the T/C (dose: 0.96 mg/kg/injection, schedule: Q01DX011 (ip), vehicle: carboxymethylcellulose (CMC)) was 72 % of control. For the same molecule, the T/C (dose: 1.6 mg/kg/injection, schedule: Q01DX011 (ip), vehicle: carboxymethylcellulose (CMC)) was 99 % of control and the T/C (dose: 2.4 mg/kg/injection, schedule: Q01DX011 (ip), vehicle: carboxymethylcellulose (CMC)) was 61 % of control and 73 % of control.

For [I][Hg][CH2]C1OCCOC1[CH2][Hg][I] (stereo unspecified), the T/C (dose: 18.0 mg/kg/injection, schedule: Q01DX011 (ip), vehicle: carboxymethylcellulose (CMC)) was 66 % of control, the T/C (dose: 37.0 mg/kg/injection, schedule: Q01DX011 (ip), vehicle: carboxymethylcellulose (CMC)) was 76 % of control and the T/C [1] was 46 % of control.

CCOC(=O)NC was tested, and the T/C (dose: 75.0 mg/kg/injection, schedule: Q01DX011 (ip), vehicle: saline) was 114 % of control, the T/C (dose: 150.0 mg/kg/injection, schedule: Q01DX011 (ip), vehicle: saline) was 98 % of control and the T/C (dose: 300.0 mg/kg/injection, schedule: Q01DX011 (ip), vehicle: saline) was 75 % of control. The T/C (dose: 500.0 mg/kg/injection, schedule: Q01DX011 (ip), vehicle: saline) was 48 % of control, the T/C (dose: 600.0 mg/kg/injection, schedule: Q01DX011 (ip), vehicle: saline) was 53 % of control and the T/C (dose: 750.0 mg/kg/injection, schedule: Q01DX011 (ip), vehicle: saline) was 37 % of control.

CC(=O)O[C@]1(C(C)=O)CC[C@H]2[C@@H]3C[C@H](C)C4=CC(=O)C=C[C@]4(C)[C@@]3(F)[C@@H](O)C[C@@]21C was tested, and the T/C [2] was 35 % of control, the T/C (dose: 37.5 mg/kg/injection, schedule: Q01DX011 (sc), vehicle: steriod suspending solution) was 34 % of control and the T/C (dose: 300.0 mg/kg/injection, schedule: Q01DX011 (sc), vehicle: steriod suspending solution) was 11 % of control.

With O=C(O)CCc1c[nH]c2ccc(N(CCCl)CCCl)cc12 the T/C (dose: 1.2 mg/kg/injection, schedule: Q01DX011 (ip), vehicle: carboxymethylcellulose (CMC)) was 107 % of control, the T/C (dose: 2.5 mg/kg/injection, schedule: Q01DX011 (ip), vehicle: carboxymethylcellulose (CMC)) was 92 % of control and the T/C [3] was 114 % of control.

In the case of C[C@]12C=CC(=O)C=C1CC[C@@H]1[C@@H]2[C@@H](O)C[C@@]2(C)[C@H]1CC[C@]2(O)C(=O)COC(=O)C1CCCC1, the T/C (dose: 0.12 mg/kg/injection, schedule: Q01DX011 (sc), vehicle: steriod suspending solution) is reported as 103 % of control, the T/C (dose: 0.25 mg/kg/injection, schedule: Q01DX011 (sc), vehicle: steriod suspending solution) is reported as 102 % of control and the T/C (dose: 0.5 mg/kg/injection, schedule: Q01DX011 (sc), vehicle: steriod suspending solution) is reported as 95 % of control. For the same molecule, the T/C (dose: 3.0 mg/kg/injection, schedule: Q01DX011 (sc), vehicle: steriod suspending solution) was 46 % of control, the T/C (dose: 6.0 mg/kg/injection, schedule: Q01DX011 (sc), vehicle: steriod suspending solution) was 47 % of control and the T/C (dose: 6.3 mg/kg/injection, schedule: Q01DX011 (sc), vehicle: steriod suspending solution) was 38 % of control. For the same molecule, the T/C (dose: 12.0 mg/kg/injection, schedule: Q01DX011 (sc), vehicle: steriod suspending solution) was 33 % of control, the T/C (dose: 12.5 mg/kg/injection, schedule: Q01DX011 (sc), vehicle: steriod suspending solution) was 25 % of control and the T/C [2] was 10 % of control and 24 % of control. The T/C (dose: 50.0 mg/kg/injection, schedule: Q01DX011 (sc), vehicle: steriod suspending solution) was 8 % of control and 14 % of control and the T/C (dose: 100.0 mg/kg/injection, schedule: Q01DX011 (sc), vehicle: steriod suspending solution) was 7 % of control.

For O=C(c1ccc(C(=O)N2CC2)cc1)N1CC1, the T/C [4] was 79 % of control, the T/C [5] was 90 % of control and the T/C (dose: 12.0 mg/kg/injection, schedule: Q01DX011 (ip), vehicle: carboxymethylcellulose (CMC)) was 74 % of control. For the same molecule, the T/C (dose: 24.0 mg/kg/injection, schedule: Q01DX011 (ip), vehicle: carboxymethylcellulose (CMC)) was 76 % of control.

For NC(=O)c1ccc(NC(=O)CCC(=O)Nc2ccc(C(N)=O)cn2)nc1, the T/C (dose: 0.5 mg/kg/injection, schedule: Q01DX011 (ip), vehicle: saline) was 106 % of control, the T/C (dose: 1.0 mg/kg/injection, schedule: Q01DX011 (ip), vehicle: saline) was 117 % of control and the T/C (dose: 2.0 mg/kg/injection, schedule: Q01DX011 (ip), vehicle: saline) was 106 % of control. The T/C (dose: 4.0 mg/kg/injection, schedule: Q01DX011 (ip), vehicle: saline) was 57 % of control.

In the case of CCCCCCCCCCCCCCCCC(C(=O)O)C(O)(CC(=O)O)C(=O)O (stereo unspecified), the T/C (dose: 19.0 mg/kg/injection, schedule: Q01DX011 (ip), vehicle: carboxymethylcellulose (CMC)) is reported as 107 % of control, the T/C (dose: 37.5 mg/kg/injection, schedule: Q01DX011 (ip), vehicle: carboxymethylcellulose (CMC)) is reported as 100 % of control and the T/C [1] is reported as 35 % of control.

In the case of O=C(Nc1ccc(C2=NCCCN2)cc1)c1ccc(C(=O)Nc2ccc(C3=NCCCN3)cc2)cc1, the T/C (dose: 0.75 mg/kg/injection, schedule: Q01DX011 (ip), vehicle: carboxymethylcellulose (CMC)) is reported as 121 % of control, the T/C (dose: 1.5 mg/kg/injection, schedule: Q01DX011 (ip), vehicle: carboxymethylcellulose (CMC)) is reported as 102 % of control and the T/C [4] is reported as 44 % of control. The T/C (dose: 3.75 mg/kg/injection, schedule: Q01DX011 (ip), vehicle: carboxymethylcellulose (CMC)) was 75 % of control, the T/C [3] was 42 % of control and the T/C [5] was 64 % of control. The T/C (dose: 7.5 mg/kg/injection, schedule: Q01DX011 (ip), vehicle: carboxymethylcellulose (CMC)) was 10 % of control.

With CC1(C)N=C(N)N=C(N)N1c1cccc(Cl)c1 the T/C (dose: 2.3 mg/kg/injection, schedule: Q01DX011 (ip), vehicle: carboxymethylcellulose (CMC)) was 91 % of control, the T/C (dose: 4.6 mg/kg/injection, schedule: Q01DX011 (ip), vehicle: carboxymethylcellulose (CMC)) was 104 % of control and the T/C (dose: 9.2 mg/kg/injection, schedule: Q01DX011 (ip), vehicle: carboxymethylcellulose (CMC)) was 108 % of control.
